Ends that are not written are not given here.
How the values were obtained:
human dental pulp cells = assay: Dental pulp cell proliferation (Cyquant); format: cell-based; conditions: for anti-proliferative activity: 5 μM in the cell medium, seeding 5.0×10^3 cells/ml
[1] = tested on: human umbilical vascular endothelial cells (HUVECs); assay: AngioKit angiogenesis assay, venule length; format: cell-based; conditions: FIG. 6; suramin 20 μM; micrin sample T2
Protocol: Micrin and micrin free control samples were produced using the method described in Example 7.a with 120 ml sheep follicular fluid as the source material. These were diluted in AngioKit medium and stored at 4° C. for the duration of the assay. Samples were tested as follows: • 1) untreated control—medium alone • 2) positive control—medium containing 2 ng/ml VEGF • 3) negative control—medium containing 20 μM suramin (a potent inhibitor of angiogenesis) • 4) micrin-free control • 5) micrin test material
Comparison of venule length was conducted using the ‘Angiosys’ image analysis system developed specifically for the analysis of images produced using the AngioKit. Four images were taken from predetermined positions in the well containing each specimen. The results obtained with micrin are marked T2, those with micrin-free control T1.

Caenorhabditis elegans [2] = format: in vivo; conditions: for effect on lifespan / increase in fecundity (number of offspring): 1 μM in aqueous medium each day; for increase in fecundity (number of offspring): over lifespan
Excerpt: (For methodology see Davies, K. G & Hart, J. E, Nematology, 10, 103-112, 2008).
The first six amino acids of the micrin peptide fragment of SEQ ID NO: 9 are MKPLTG (SEQ ID NO: 26). These have been synthesized as a 6 mer. […] Thus the fecundity-enhancing effect is retained even if 8 of the 14 amino acids are removed, potentially identifying an active motif. To optimise this 6 mer further, amino acid substitutions have been made, while retaining the proline at position 3.

[3] = tested on: human bone marrow stem cells; assay: Human bone marrow stem cell proliferation in vitro; format: cell-based; conditions: 1 μM in the medium, 24 h
Protocol: (§1) Micrin activity has been determined by means of a suitable in vitro assay, for example the breast cancer cell viability assay described above in Section 4 with reference to FIG. 4. A useful assay in support of molecular optimisation involves adult rat bone marrow stem cells in culture, with α-MEMS as cell medium and manual assessments of cell numbers and morphology using time-lapse video photography over 24 h. In one study, untreated control cells increased in number by 50%. An increase of just under 20% was also seen with the 14 mer peptide SEQ ID NO: 9, administered at 10 μg/ml of medium.
To investigate the stop growing aspect of the hypothesized micrin puberty signal, the proline-containing 6 mers have been administered to human bone marrow stem cells in an in vitro assay (see 6a), at a concentration in the medium of 1 μM.

Caenorhabditis elegans [4] = conditions: Davies & Hart, Nematology 2008; cited from earlier work
[5] = tested on: compensatory renal growth; conditions: procedures as in 7c; Haylor et al 2009; cited from earlier work
[6] = tested on: adult rat bone marrow stem cells; assay: Adult rat bone marrow stem cells in culture, cell numbers by time-lapse video over 24 h; format: cell-based
Protocol: Polyclonal antibodies were raised in the same manner using goats instead of rabbits, with Peptide 2 conjugated to KLH. The primary immunisation was followed by 8 boosters at monthly intervals, using standard techniques for the raising of polyclonal antibodies. Titre was established via immunohistochemistry, using rat and ovine median eminence tissue and the ability to block antibody with Peptide 1 was determined on histological sections. Specificity was tested using a range of hypothalamic peptides. […] 9, which consists of KVKEFNNI (SEQ ID NO. 21). Purification of the antibody using the peptide SEQ ID NO: 9 immobilised on a column enriches for antibody to the C-terminal epitope. The goat antibody has been used in connection with an assay based on adult rat bone marrow stem cells in culture, with α-MEMS as cell medium and manual assessments of cell numbers and morphology using time-lapse video photography over 24 h.
as §1

ovine pituitary cells [7] = assay: LH secretion by pituitary cells in vitro; format: cell-based; conditions: 24 h, 0.1-10 μg/L, dose dependent, vs scrambled peptide, data not shown
Protocol: Both effects are dependent on dose across the range used, 0.1-10 μg/L, and are statistically significant. Comparison was with a control peptide having the same amino acids in a randomly scrambled sequence (data not shown)

ovine pituitary cells [8] = assay: Prolactin production by pituitary cells in vitro, RIA; format: cell-based
Protocol: Adult ewe pituitaries were collected into phosphate buffered saline (PBS) on ice. The external dura and neurohypophyseal tissue were removed and the remaining tissue was sliced thinly using tweezers and scalpel, and minced using crossed scalpel blades (<1 mm pieces). The mince was washed in 0.1% bovine serum albumen (BSA)/PBS. The tissue was allowed to settle and the liquid aspirated. The washing, settling and aspiration were repeated.
A standard cell dispersion was conducted by adding the tissue to a filtered solution of collagenase in BSA/PBS (0.02-0.03 g in 10 ml) plus Dnase, hyaluronidase, pancreatin and trypsin inhibitor and incubating in a shaking waterbath at 37° C. for 25 minutes. The resultant suspension was titurated with a pipette and returned to the shaking waterbath for 5 minutes. The suspension was titurated again and filtered through a mesh, washing with BSA/PBS. The suspension was added to a 50 ml centrifuge tube and spun at 1500 rpm for 5 minutes. The supernatant was removed and the cell pellet resuspended in 50 ml BSA/PBS.
A sample of the cell suspension (50 μl) was mixed 1:1 with trypan blue in a microcentrifuge tube and viable cells were counted on a haemocytometer, to give viable cell concentration.
The cell suspension was recentrifuged and resuspended in 3-5 ml of M199. […]

[9] = tested on: MCF 7 human breast cancer cells; assay: IGF1-stimulated cell growth, Coulter counter; format: cell-based; conditions: IGF1 50 ng/ml, 72 hours
Protocol: Experiments were conducted to assess the effects of a range of doses of the micrin peptide fragment with 20 amino acids (SEQ ID NO: 19) on the IGF1-stimulated growth of MCF 7 human breast cancer cells. Cells were plated at 2×10^4 per well in 2 cm^2 wells in Dulbecco's Modified Eagle's Medium containing 10% foetal calf serum, antibiotics and a stabilised substitute for glutamine (Glutamax, InVitrogen, UK). After an overnight culture period, the cells were washed with fresh medium and this was replaced with medium containing IGF1 (50 ng/ml) in the presence and absence of a range of concentrations (between 0.04 and 4000 nmol) of the peptide fragment in triplicate wells, and compared to triplicate wells containing medium only (with no supplementary IGF1) as controls. The cells were incubated for 72 hours in a humidified atmosphere at 37° C. under 5% carbon dioxide/95% air. The medium was discarded, and the cell layer washed with buffered saline before being incubated with trypsin/EDTA to dislodge the cells. The cell suspension was diluted with medium to stop the tryptic action and then transferred to tubes and subjected to centrifugation. The pellet was resuspended in Isoton and samples counted with a Coulter counter.

In the case of “1KPLTGKVKEFNNI [SEQ ID NO:1, 14 mer wherein 1 is S, D or M]”, the anti-proliferative activity (human dental pulp cells) is reported as “more so”.

With `Cc1ccc(C(=O)Nc2ccc(S(=O)(=O)O)c3cc(S(=O)(=O)O)cc(S(=O)(=O)O)c23)cc1NC(=O)c1cccc(NC(=O)Nc2cccc(C(=O)Nc3cc(C(=O)Nc4ccc(S(=O)(=O)O)c5cc(S(=O)(=O)O)cc(S(=O)(=O)O)c45)ccc3C)c2)c1` [Suramin, suramin] the HUVEC venule length [1] was “statistically significant decrease in HUVEC venule length”.

With IEPVFT the effect on lifespan (Caenorhabditis elegans [2]) was “without having a significant effect on lifespan”, the “increase in fecundity (number of offspring)” value (from here on “increase in fecundity”) (Caenorhabditis elegans [2]) was 79% and the “ascending order of anti-proliferative activity” value (shortened to “ascending order”) [3] was “IEPVFT (SEQ ID NO: 30)<MKPLTG (SEQ ID NO. 26)<LEPVMT (SEQ ID NO: 31)<LQPAHV (SEQ ID NO: 27)”.

For “KLKMNGKN (SEQ ID NO: 29) to the N-terminus of IEPVFT: IEPVFT with KLKMNGKN added to its N-terminus (KLKMNGKNIEPVFT)”, the effect on fecundity (Caenorhabditis elegans [4]) is given as “anti-fecundity agent”.

With KVKEFNNI the anti-proliferative activity (human dental pulp cells) was “most anti-proliferative of all” and the “reduction of cell numbers” value (human dental pulp cells; 5 μM, over 7 days) was “about 17%”.

With LEPVMT the “ascending order” value [3] was “IEPVFT (SEQ ID NO: 30)<MKPLTG (SEQ ID NO. 26)<LEPVMT (SEQ ID NO: 31)<LQPAHV (SEQ ID NO: 27)”.

For LQPAHV, the effect on lifespan (Caenorhabditis elegans [2]) was “significantly to prolong lifespan”, the “increase in fecundity” value (Caenorhabditis elegans [2]) was 71% and the “ascending order” value [3] was “IEPVFT (SEQ ID NO: 30)<MKPLTG (SEQ ID NO. 26)<LEPVMT (SEQ ID NO: 31)<LQPAHV (SEQ ID NO: 27)”. For the same compound, the “reduction of cell numbers” value [3] was “about 32%”.

For MKPLTG, the anti-proliferative activity (human dental pulp cells) was “minimally anti-proliferative”, the effect on lifespan (Caenorhabditis elegans [2]) was “without altering lifespan” and the “increase in fecundity” value (Caenorhabditis elegans [2]) was 50%. The “ascending order” value [3] was “IEPVFT (SEQ ID NO: 30)<MKPLTG (SEQ ID NO. 26)<LEPVMT (SEQ ID NO: 31)<LQPAHV (SEQ ID NO: 27)”.

For MKPLTGKVKEFNNI [SEQ ID NO: 9], the “effect on compensatory renal growth” value [5] is listed as “inhibits compensatory renal growth”, the effect on lifespan (Caenorhabditis elegans [2]) is listed as “increased by about a fifth” and the “increase in fecundity” value (Caenorhabditis elegans [2]) is listed as over 40%. For the same compound, the “increase in cell number” value ([6]; 10 μg/ml of medium, 24 h, untreated control cells increased by 50%) was “under 20%”, the “effect of co-administration on the antibody's reduction of the negative influence” value ([6]; with goat antibody and rat hypothalamus extract) was “reversed by co-administration” and the LH production (ovine pituitary cells [7]; cells provided with GnRH, GHRH and TRH) was “reduction in LH production”. For the same compound, the LH secretion (ovine pituitary cells [7]; hypothalamic regulators omitted) was “increase the secretion of LH”, the “prolactin level in medium” value (ovine pituitary cells [8]; Experiment 1: 1 ng/well, 24 hours, n=4, control 92.2±13.9) was 67.1 ± 12.6 ng/mL and the “prolactin level in medium” value (ovine pituitary cells [8]; Experiment 2: 1 μg/ml, 2 hours, control 8.30±1.16, p<0.05) was 5.18 ± 1.52 ng/mL.

In the case of MKPLTGKVKEFNNIKGFGVI [SEQ ID NO: 19], the “cell count compared to IGF1 alone” value ([9]; 0.04 nmol peptide) is reported as “noticably decreases the cell count”, the “cell count compared to controls” value ([9]; 40 nmol peptide) is reported as “reduces the cell count to below that in the controls” and the “effect on IGF1-stimulated cell growth” value ([9]; 0.04-4000 nmol, FIG. 7) is reported as “suppresses the effect of IGF1 in a dose-dependent manner”. The “reduction in cell numbers” value ([6]; 24 h, due to apoptosis) was “about 80%”.

With “fluorescently tagged version of the micrin peptide fragment: fluorescently tagged version of the micrin peptide fragment SEQ ID NO: 9 (MKPLTGKVKEFNNI; also: fluorescent tag, position not given here)” the tissue accumulation (Caenorhabditis elegans [2]; in vivo) was “accumulate preferentially in genital tissue”.
